pIC50: −log10 of the molar value.
Tests used:
male CD (SD) IGS rats = test: Serum hypouricemic effect; type: in vivo; details: Rattus norvegicus; 1 mg/kg oral gavage, overnight fasted male rats, serum at 2 hours after administration; read-out: percent decrease in uric acid
Experimental: Test compounds at 1 mg/kg suspended in 0.5% methylcellulose solution were administered by oral gavage administration to overnight fasted male CD (SD) IGS rats (5-week-old, Charls River Japan). At 2 hours after administration, blood was collected under ether anesthesia from abdominal aorta, and serum was separated according to general method. Serum uric acid values were determined by use of uric acid measurement kit (Uric acid C-Test Wako: Wako pure chemical), and percent decrease in uric acid was calculated according to the formula described below. As a result, it was shown that compounds of Examples 2, 7, 10, 22, 23, 25, 37, 49, 50 and 58 have over 60% percent decrease in uric acid.
Percent decrease in uric acid (%)=(Serum uric acid values in control animals−Serum uric acid values in animals administered test compounds)×100/Serum uric acid values in control animals

[1] = target: T1, Xanthine oxidase (from bovine milk, Sigma) (Bos taurus, UniProt P80457); test: Xanthine oxidase inhibitory activity; type: biochemical; details: xanthine oxidase from bovine milk 0.02 units/mL, xanthine 200 μM, 10 minutes at room temperature, absorbance at 290 nm
T1 construct: Xanthine oxidase (from bovine milk, Sigma); purchased Sigma; host or cells: bovine milk
T1 sequence (P80457 whole entry): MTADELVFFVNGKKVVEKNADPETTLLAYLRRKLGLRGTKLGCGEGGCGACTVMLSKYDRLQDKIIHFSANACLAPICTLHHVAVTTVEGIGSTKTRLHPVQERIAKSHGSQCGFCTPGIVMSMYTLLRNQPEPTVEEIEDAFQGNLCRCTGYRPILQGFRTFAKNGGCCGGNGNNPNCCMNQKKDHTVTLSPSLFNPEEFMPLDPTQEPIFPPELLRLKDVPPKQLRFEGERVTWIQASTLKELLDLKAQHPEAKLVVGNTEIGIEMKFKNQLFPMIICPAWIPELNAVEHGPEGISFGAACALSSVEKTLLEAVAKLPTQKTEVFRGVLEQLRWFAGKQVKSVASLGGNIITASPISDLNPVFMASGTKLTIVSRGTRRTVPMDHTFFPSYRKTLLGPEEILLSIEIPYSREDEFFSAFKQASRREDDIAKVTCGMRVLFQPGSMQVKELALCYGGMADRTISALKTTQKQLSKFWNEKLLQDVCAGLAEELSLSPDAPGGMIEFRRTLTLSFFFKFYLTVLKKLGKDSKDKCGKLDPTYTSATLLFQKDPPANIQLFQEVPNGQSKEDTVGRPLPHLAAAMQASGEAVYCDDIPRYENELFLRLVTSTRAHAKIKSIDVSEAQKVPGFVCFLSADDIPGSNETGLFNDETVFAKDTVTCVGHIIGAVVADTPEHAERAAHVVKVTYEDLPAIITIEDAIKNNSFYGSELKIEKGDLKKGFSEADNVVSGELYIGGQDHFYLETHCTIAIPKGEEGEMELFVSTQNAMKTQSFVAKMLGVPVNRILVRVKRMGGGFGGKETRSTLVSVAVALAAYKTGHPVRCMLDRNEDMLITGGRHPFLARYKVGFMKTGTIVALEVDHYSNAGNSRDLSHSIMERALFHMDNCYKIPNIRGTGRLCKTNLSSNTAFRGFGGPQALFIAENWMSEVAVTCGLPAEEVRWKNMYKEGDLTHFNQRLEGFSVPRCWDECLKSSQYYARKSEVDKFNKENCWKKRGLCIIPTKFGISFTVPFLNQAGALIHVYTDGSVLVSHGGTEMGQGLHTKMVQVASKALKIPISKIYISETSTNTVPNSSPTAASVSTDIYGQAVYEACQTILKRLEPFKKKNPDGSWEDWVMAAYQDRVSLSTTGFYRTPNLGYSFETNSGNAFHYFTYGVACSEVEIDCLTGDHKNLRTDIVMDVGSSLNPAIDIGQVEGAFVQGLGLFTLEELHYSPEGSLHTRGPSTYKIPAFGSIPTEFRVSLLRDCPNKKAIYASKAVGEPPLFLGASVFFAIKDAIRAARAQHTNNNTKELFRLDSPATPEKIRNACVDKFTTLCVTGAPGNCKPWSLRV
Experimental: (1) Preparation of test compounds
Test compounds were dissolved in DMSO (Wako pure chemical) at 40 mM concentration and then diluted to intended concentrations with phosphate-buffered saline (PBS).
(2) Method for measurement
Xanthine oxidase (from bovine milk, Sigma) was prepared with phosphate-buffered saline (PBS) at 0.02 units/mL, and then the solution was added to 96 well plates at 50 μL/well. In addition, test compounds diluted with PBS were added at 50 μL/well. Xanthine (Wako pure chemical) at 200 μM prepared with PBS was added at 100 μL/well, and the mixture was reacted for 10 minutes at room temperature. Absorbance at 290 nm was measured using a microplate reader SpectraMax Plus 384 (Molecular device). The absorbance under a condition without xanthine is 0%, and control without test compounds is 100%. Fifty % inhibitory concentration (IC50) of test compounds was calculated (Table 17). Ex. No. in the table indicates Example number.

human URAT1 = target: T2, human URAT1 (Homo sapiens, UniProt Q96S37); test: Inhibitory activity of uric acid transport with human URAT1 expressing cells; type: cell-based; details: COS-7; concentration of 10 μM; 14C-labeled uric acid 20 μM, 5 minutes uptake, COS7 cells transiently expressing human URAT1
T2 construct: expressed in transfected cells; host or cells: COS7 cells (RIKEN CELL BANK RCB0539), transient, pcDNA3.1
T2 sequence (Q96S37 1-553): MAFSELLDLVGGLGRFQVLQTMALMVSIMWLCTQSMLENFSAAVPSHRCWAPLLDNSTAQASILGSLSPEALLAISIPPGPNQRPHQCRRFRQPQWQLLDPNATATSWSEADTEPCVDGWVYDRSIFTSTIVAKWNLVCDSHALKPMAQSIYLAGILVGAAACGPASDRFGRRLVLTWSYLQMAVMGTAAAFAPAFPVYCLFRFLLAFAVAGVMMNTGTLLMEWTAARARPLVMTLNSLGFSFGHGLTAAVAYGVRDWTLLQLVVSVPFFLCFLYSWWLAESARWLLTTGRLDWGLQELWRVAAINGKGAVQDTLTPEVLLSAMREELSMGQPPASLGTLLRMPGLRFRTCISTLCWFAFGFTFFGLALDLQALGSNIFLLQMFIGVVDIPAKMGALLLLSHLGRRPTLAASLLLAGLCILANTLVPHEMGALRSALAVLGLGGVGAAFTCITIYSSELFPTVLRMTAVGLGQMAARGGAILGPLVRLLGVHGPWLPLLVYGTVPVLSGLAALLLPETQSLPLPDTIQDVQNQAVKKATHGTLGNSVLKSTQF
Experimental: (1) Preparation of transiently human URAT1 expressing cells
Full length human URAT1 cDNA (NCBI Accession No. NM_144585) was subcloned into expression vector, pcDNA3.1 (Invitrogen). Human URAT1 expression vector was transfected into COS7 cells (RIKEN CELL BANK RCB0539) using Lipofectamine 2000 (Invitrogen). COS7 cells were seeded in collagen-coated 24 well plates (Beckton Dickinson) at 3×10^5 cells / well and cultured in D-MEM culture medium (Invitrogen) containing 10% fetal bovine serum (Sanko Junyaku) for 2 hours at 37° C. under the condition of 5% CO2. For 1 well, 2 μL of Lipofectamine 2000 was diluted in 50 μL of OPTI-MEM (Invitrogen) and allowed to stand at room temperature for 7 minutes (hereinafter referred to as Lipo2000-OPTI). For 1 well, 0.8 μg of human URAT1 expression vector was diluted in 50 μL of OPTI-MEM (Invitrogen) and combined gently with Lipo2000-OPTI. After standing at room temperature for 25 minutes, the mixture was added to COS7 cells at 100 μL/well. Furthermore, COS7 cells were cultured for 2 days at 37° C. under the condition of 5% CO2 and used for measuring inhibitory activity on the uptake.
(2) Preparation of test compounds
Test compounds were dissolved in DMSO (Wako pure chemical) at 10 mM concentration and then diluted to 2 times higher concentration than intended with pre-treatment buffer (125 mM sodium gluconate, 4.8 mM potassium gluconate, 1.2 mM potassium dihydrogen phosphate, 1.2 mM magnesium sulfate, 1.3 mM calcium gluconate, 5.6 mM glucose, 25 mM Hepes, pH 7.4). Pre-treatment buffer without test compounds was used for control. In addition, an equal volume of pre-treatment buffer containing ^14C-labeled uric acid (American Radiolabeled Chemicals, Inc.) was added to test compounds and control, and finally assay buffer including 20 μM uric acid was prepared.
(3) Method for measurement
All tests were performed on hot-plate at 37° C. Pre-treatment buffer and assay buffer were incubated at 37° C. and then used for assays. Medium was removed from plates, and 700 μL of pre-treatment buffer was added, and the cells were pre-incubated for 10 minutes. After repeating the same step, pre-treatment buffer was removed, and assay buffer was added at 400 μL/well. The uptake reaction was carried out for 5 minutes. After terminating the reaction, assay buffer was rapidly removed, and the cells were washed twice with addition of ice-cold pre-treatment buffer at 1.2 mL/well. Then, the cells were lysed by addition of 0.2 mol/L sodium hydroxide at 300 μL/well. The lysed solutions were transferred into Picoplate (PerkinElmer), and Microscinti 40 (PerkinElmer) was added at 600 μL/well. After mixing, the radioactivity was counted in a liquid scintillation counter (PerkinElmer). The radioactivity in COS7 cells not transfected with URAT1 expression vector was also counted under the same condition as control. As a result, it was shown that compounds of Examples 5, 8, 17, 18, 22, 40 and 55 have inhibitory activity of 50% or higher in a concentration of 10 μM.

For Cc1ccn2c(-c3ccc(C(=O)O)cc3)cc(C#N)c2c1 [Example 2], the inhibition in vivo at 1 mg/kg (male CD (SD) IGS rats) was > 60% and the pIC50 [1] was 8.40.

For Cc1ccc2c(C#N)cc(-c3ccc(C(=O)O)cc3)n2c1 [Example 5], the inhibition at 10 µM (human URAT1) was ≥ 50% and the pIC50 [1] was 8.00.

In the case of Cc1ccn2c(-c3ccc(C(=O)O)cc3)cc(C#N)c2c1F [Example 7], the inhibition in vivo at 1 mg/kg (male CD (SD) IGS rats) was > 60% and the pIC50 [1] was 8.30.

Cc1cc2c(C#N)cc(-c3ccc(C(=O)O)cc3)n2cc1F [Example 8] was tested, and the inhibition at 10 µM (human URAT1) was ≥ 50% and the pIC50 [1] was 8.22.

In the case of CCc1ccn2c(-c3ccc(C(=O)O)cc3)cc(C#N)c2c1 [Example 10], the inhibition in vivo at 1 mg/kg (male CD (SD) IGS rats) was > 60% and the pIC50 [1] was 8.10.

For Cc1ccn2c(-c3ccc(C(=O)O)c(O)c3)cc(C#N)c2c1 [Example 18], the inhibition at 10 µM (human URAT1) was ≥ 50% and the pIC50 [1] was 8.52.

Cc1cc2c(C#N)cc(-c3ccc(C(=O)O)c(O)c3)n2cc1F [Example 22] was tested, and the inhibition in vivo at 1 mg/kg (male CD (SD) IGS rats) was > 60%, the inhibition at 10 µM (human URAT1) was ≥ 50% and the pIC50 [1] was 8.52.

With Cc1ccn2c(-c3ccc(C(=O)O)c(O)c3)cc(C#N)c2c1F [Example 23] the inhibition in vivo at 1 mg/kg (male CD (SD) IGS rats) was > 60% and the pIC50 [1] was 8.52.

For N#Cc1cc(-c2ccc(C(=O)O)c(O)c2)n2cccc(F)c12 [Example 25], the inhibition in vivo at 1 mg/kg (male CD (SD) IGS rats) was > 60% and the pIC50 [1] was 8.30.

In the case of Cc1ccn2c(-c3ccc(C(=O)O)cc3)cc(C#N)c2c1Cl [Example 37], the inhibition in vivo at 1 mg/kg (male CD (SD) IGS rats) was > 60% and the pIC50 [1] was 8.40.

For N#Cc1cc(-c2ccc(C(=O)O)cc2)n2cc(F)cc(F)c12 [Example 40], the inhibition at 10 µM (human URAT1) was ≥ 50% and the pIC50 [1] was 7.85.

For Cc1cc2c(C#N)cc(-c3ccc(C(=O)O)c(O)c3)n2cc1Cl [Example 49], the inhibition in vivo at 1 mg/kg (male CD (SD) IGS rats) was > 60% and the pIC50 [1] was 8.70.

With Cc1ccn2c(-c3ccc(C(=O)O)c(O)c3)cc(C#N)c2c1Cl [Example 50] the inhibition in vivo at 1 mg/kg (male CD (SD) IGS rats) was > 60% and the pIC50 [1] was 8.70.

In the case of N#Cc1cc(-c2ccc(C(=O)O)c(O)c2)n2cc(F)cc(F)c12 [Example 55], the inhibition at 10 µM (human URAT1) was ≥ 50% and the pIC50 [1] was 8.22.

Work on CC(C)(C)c1ccn2c(-c3ccc(C(=O)O)c(O)c3)cc(C#N)c2c1 [Example 56] yielded a pIC50 [1] of 8.70.

In the case of N#Cc1cc(-c2ccc(C(=O)O)c(O)c2)n2ccc(-c3cnco3)cc12 [Example 57], the pIC50 [1] was 8.40.

In the case of COc1ccn2c(-c3ccc(C(=O)O)c(O)c3)cc(C#N)c2c1 [Example 58], the inhibition in vivo at 1 mg/kg (male CD (SD) IGS rats) was > 60% and the pIC50 [1] was 8.70.

With CN(C)c1ccn2c(-c3ccc(C(=O)O)c(O)c3)cc(C#N)c2c1 [Example 59] the pIC50 [1] was 8.00.

Compound COc1cc2c(C#N)cc(-c3ccc(C(=O)O)c(O)c3)n2cc1C [Example 60] has a pIC50 [1] of 7.82.

In the case of N#Cc1c(F)c(-c2ccc(C(=O)O)cc2)n2ccccc12 [Example 61, 4-(1-Cyano-2-fluoroindolizine-3-yl) benzoic acid], the pIC50 [1] was 7.17.

In the case of N#Cc1c(F)c(-c2ccc(C(=O)O)c(O)c2)n2ccccc12 [Example 62, 4-(1-Cyano-2-fluoroindolizine-3-yl)-2-hydroxybenzoic acid], the pIC50 [1] was 8.40.

Compound N#Cc1cc(-c2ccc(C(=O)O)c(O)c2)n2ccc(CF)cc12 [Example 63, 4-(1-Cyano-7-fluoromethylindolizine-3-yl)-2-hydroxybenzoic acid] has a pIC50 [1] of 8.10.

With N#Cc1cc(-c2ccc(C(=O)O)cc2)n2ccc(Br)cc12 [Example 64] the pIC50 [1] was 8.10.

With N#Cc1cc(-c2cnc(C(=O)O)c(O)c2)n2ccccc12 [Example 65] the pIC50 [1] was 8.10.

For Cc1ccn2c(-c3cnc(C(=O)O)c(O)c3)cc(C#N)c2c1 [Example 66], the pIC50 [1] was 8.70.

For Cc1ccn2c(-c3cnc(C(=O)O)c(O)c3)cc(C#N)c2c1F [Example 67], the pIC50 [1] was 8.70.

N#Cc1cc(-c2ccc(C(=O)O)nc2)n2ccccc12 [Example 70] gave a pIC50 [1] of 7.74.

With Cc1nc(-c2cc(C#N)c3ccccn23)sc1C(=O)O [Example 71] the pIC50 [1] was 7.70.
